86 compounds from a melting point compilation (Tetko et al.; mined from patent text by program, amines drawn as free bases though some values may be those of a salt) can be followed below.

Where only a bound is given, the exact number is not on record here.

One may read the melting point as the temperature, or range, at which the solid turns liquid. Regarding `Cc1ccc(-c2c(CNC(=O)OC(C)(C)C)c(CC(C)C)nc3ccc(-c4nc(C(=O)OC(C)C)cs4)cc23)cc1`, the melting point fell in the range of 190 to 191 °C. Consider `Cc1c(-c2ccccc2)oc2c(C(=O)O)cccc12`, for which the melting point was 220 to 222 °C. With `COc1cccc(-n2c(-c3sc(Nc4ccccc4)nc3-c3ccccc3)nc3ccccc3c2=O)c1`, the melting point is 250 to 252 °C.

Turning to `CC(=O)Nc1nc(CCc2ccc(CC(=O)NC(=N)N)s2)cs1`, the melting point lay in the range of 188 to 190 °C. The figure for `COc1cc(C(=O)O)ccc1Cc1cn(C)c2ccc(CC(C)NC(=O)N(C)C)cc12` (stereo unspecified) is 162 to 163 °C.

Compound `CN=C1CCCc2scnc21` gave a melting point of 233 to 235 °C. The figure for `Cc1nnc(C=Cc2ccccc2OC[C@@H](O)CN2CCC(c3ccc4ccccc4c3)CC2)o1` is 105 to 106 °C; for `CCOc1cc2nc(S(C)(=O)=O)[nH]c2cc1OCC` it is 182 to 184 °C.

Compound `COc1cc(OC)c2c(=O)[nH]c(-c3ccc(OCCNC(C)C)c(-c4ccc(S(C)(=O)=O)cc4C(F)(F)F)n3)nc2c1` registered a melting point of 199 to 201 °C.

`CC(=O)OC1CCCC(n2c(Br)nc3cc(Cl)c(Cl)cc32)C1OC(C)=O` (stereo unspecified) showed a melting point of 71 to 79 °C.

Compound `CC(CC(=O)c1cccc(Cl)c1)C(=O)O` (stereo unspecified) showed a melting point of 100 to 102 °C. The figure for `COc1cc(Oc2cccc(C)c2)nc(C(=O)Nc2ccc(C)cc2)c1` is 110 to 114 °C.

`FC(F)(F)c1n[nH]c(Cl)c1Cl` had a melting point of 58 to 60 °C. Then `Cc1nnc(-c2ccc(O)cc2)o1`, with 239 °C; and `CCCN(c1cc(C)ccn1)c1cccc2c1OC[C@H]2Nc1ccc2c(c1)OC[C@H]2CC(=O)O`, with 146 °C. Then `CC(O)COC1CCNCC1` (stereo unspecified), with 55 to 57 °C; and `CCCN(CCC)c1ccc2c(c1)O/C(=C1/Oc3cc(N(CCC)CCC)ccc3C1=O)C2=O`, with 283 °C; and `COCCc1nc2c(N)nc3cc(OCc4cccnc4)ccc3c2n1CC(C)(C)O`, with 200 to 202 °C. `Cc1cc(-c2noc(CO)n2)ccc1Br`: the melting point lay in the range of 111 to 112 °C. Then `Cc1ccnc2c1C(=O)c1ccccc1-2`, with 130 to 131 °C; and `O=S(=O)(NC(CO)CO)c1ccc(Cl)s1`, with 90 to 92 °C; and `Cc1ccc(-c2cn(-c3ccc4c(c3)c3ccccc3n4C)c(-c3ccc(C)s3)n2)s1`, with 248 to 255 °C. Then `Cc1nn(C)c(NCC(C)(C)C)c1NCc1ccc(F)cc1`, with 32 to 39 °C; and `CCOC(=O)CCc1ccc2[nH]c(-c3cccnc3)c(C)c2c1`, with > 275 °C; and `CCOC(=O)COc1ccc(OCC)cc1C(Nc1ccc(C(=N)NC(=O)OC(C)(C)C)cc1)C(=O)OCC` (racemic), with 241 °C.

The compound `COC(=O)CCCc1cc2nc(Cl)ccc2n1S(=O)(=O)c1ccc2c(c1)OCO2` came in with a melting point of 120 °C.

`CCOc1c(C)c(NC(=O)CC(C)(C)C)c(C)c2c1OCC2c1ccc(C(C)C)cc1` (stereo unspecified): the melting point lay within 174 to 175 °C. Then `COc1cc(COc2nn(-c3ccccc3)cc2-c2cnco2)ccc1OCc1nc(-c2ccco2)oc1C`, with 153 to 154 °C; and `COc1cc(OC)cc(C(=O)P2(=O)Oc3ccccc3-c3ccccc32)c1` (stereo unspecified), with 140 to 142 °C; and `O=C1CC=C(c2ccc(Cl)cc2)CC1`, with 59 to 62 °C.

As to `Cn1c(=Nc2ccc(Cl)cc2)sc2ncccc2c1=O`, the melting point was in the range of 142 to 143 °C.

Consider `Cc1ccc(/C=C/C(=O)Nc2cccc(NC(=N)c3ccccc3)c2)cc1`, for which the melting point fell in the range of 147 to 149 °C. The figure for `CCOC(=O)c1cc2cc(-c3ccc(C(C)O)cc3)ccc2o1` (stereo unspecified) is 108 to 109 °C; for `O=c1cc(-c2n[nH]c3ccccc23)oc2ccccc12` it is 237 to 238 °C; for `CC(C)(C)OC(=O)NCCNC(=O)c1nocc1-c1ccccc1` it is 170 to 171 °C. The figure for `CC(C)(C)c1cc(Nc2ccc(CCC(=O)O)cc2)cc(C(C)(C)C)c1O` is 140 to 142 °C. The figure for `COc1ccc(Nc2cc(-c3ccncc3)nc3ccccc23)cc1Cl` is 280 to 282 °C. On to `COc1ccc(Cc2cnc(NCCSCc3nc[nH]c3C)[nH]c2=O)cn1`, for which the melting point fell in the range of 197 to 198 °C. The figure for `CC(C)(N)Cc1c[nH]c2ccc(Br)cc12` is 150 to 155 °C.

For the compound `CCn1c2ccc(C(=O)CC(C)=O)cc2c2cc(C(=O)c3ccccc3C)ccc21`, the melting point amounted to 148 °C. Then `CC(C)CNC(=O)c1cccnc1Oc1cccc(Cl)c1`, with 86 to 87 °C; and `Cc1cc(Nc2ccc(F)cc2)nc(Nc2ccc(S(=O)(=O)N(C)C3CCN(Cc4ccoc4)CC3)cc2)n1`, with 156 °C; and `CCCCCCCNC(=O)Nc1ccc(N(C)C)cc1C(=O)NCC1CCN(C(c2ccc(OC)cc2)c2ccc(OC)cc2)CC1`, with 163 °C.

As to `N#Cc1ccc(/C=C/c2nc[nH]c2[N+](=O)[O-])cc1`, the melting point was > 300 °C. The figure for `CCOc1cccc(NC(=O)NC2N=C(c3ccccc3F)c3ccccc3N(CC(=O)N3CC4CCC(CC4)C3)C2=O)c1` (stereo unspecified) is 158 to 166 °C; for `CCC12CCC3c4ccc(OC)cc4CCC3C1CCC2O` (stereo unspecified) it is 126 to 130 °C; for `CCCC(=O)CCCCCC(=O)N[C@@H](C)C(=O)OC` it is 51 to 54 °C. The figure for `Fc1ccc(-c2[nH]nc(-c3ccccc3)c2-c2ccncc2)cc1` is 265 to 267 °C. The figure for `c1ccc(CCCn2c(-c3ccc4c(c3)OCO4)nc3ccccc32)cc1` is 99.8 to 100 °C; for `O=C(CCC1CCCCCCCCCCC1)C1=C(O)CSC1=O` it is 60 to 62 °C.

Consider `COc1cc(Nc2c(C#N)cnc3cc(-c4ccc(CN5CCN(C)CC5)cc4)sc23)c(Cl)cc1Cl`, for which the melting point was in the range of 226 to 228 °C.

In turn, `OCC1OC(n2cnc3c(NCCCCC(c4ccccc4)c4ccccc4)ncnc32)C(O)C1O` (stereo unspecified) displayed a melting point of 78 to 82 °C.

`COC(=O)CC(NC(=O)c1cccc(OC)c1)c1ccc(OC)c(OC)c1` (stereo unspecified): the melting point fell in the range of 124 to 125 °C.

Compound `Cc1cc(C)cc(C(=O)N2CCC(N3CCC(=C4c5ccccc5CCn5ccnc54)CC3)CC2Cc2ccccc2)c1` (stereo unspecified) returned a melting point of 139 °C. The figure for `CCOC(OCC)c1ccccc1CN(CCn1ccc2oc(C)cc2c1=O)Cc1ccc2c(c1)N(C)C(=O)C(C)(C)C(=O)N2CC` is 138 to 139 °C; for `CC(C)(C)OC(=O)Nc1ccc(CCO)cc1` it is 104 to 105 °C; for `CC(N)=Nc1ccc(Cl)cc1Cc1ccccc1F` it is 115 to 119 °C. `CC(=O)NC[C@H]1CN(c2ccc3c(c2)CCS(=O)(=O)CC3)C(=O)O1`: the melting point lay in the range of 142 to 144 °C.

`CSC(=C[N+](=O)[O-])NCCCCc1csc(N(CC(F)(F)F)C(=N)N)n1` gave a melting point of 140 to 141 °C. Then `COc1cc(C2c3cc4c(cc3C(N)C3COC(=O)C23)OCO4)cc(OC)c1O[Si](C)(C)C(C)(C)C` (stereo unspecified), with 236 to 238 °C. The figure for `O=C1CCCN1C1=CC(CF)(CF)Oc2ccc(C(F)(F)C(F)(F)F)cc21` is 104 to 105 °C. The figure for `S=C(Nc1ccccc1)Nc1ncccc1OCc1ccc(Cl)cc1` is 162 to 164 °C; for `CCOC(=O)C(Cc1ccc(OCCc2nc(-c3ccccc3)oc2C)cc1)C(=O)OCC` it is 69.8 to 70.5 °C; for `CSc1nc(Cl)c(Cc2ccccc2)c(N2CCCC2)n1` it is 97 to 99 °C. The compound `O=C1C(Cc2ccccc2)C(C(F)(F)F)=Nc2ccccc2N1Cc1ccccc1` (stereo unspecified) showed a melting point of 150 to 151 °C. With `COC(C)=CC(=O)Nc1cccc(N(C)C(N)=O)c1`, the melting point is 166 °C. The figure for `Cn1c(CBr)c(C(=O)c2ccccc2)c(=O)n(C)c1=O` is 164 to 167 °C. The figure for `CC(=O)OCC1=C(C(=O)O)N2C(=O)C(NC(=O)Cc3ccc(CN=[N+]=[N-])cc3)C2SC1` (stereo unspecified) is 135 to 136 °C. Then `Nc1nc2c(s1)CCN(C/C=C\c1cccc3c1CC(=O)N3)CC2`, with 192 to 195 °C; and `O=C(O)c1cnn2c(C(F)(F)F)cc(-c3ccc(C(F)(F)F)cc3)cc12`, with > 250 °C; and `O=C(O)c1cccc(-c2ccc3c(c2)N(Cc2cc(Cl)ccc2Cl)CC3)c1`, with 198 to 199 °C. In turn, `CCOP(=O)(CCCN)OCC` came in with a melting point of 54 °C. Then `CN(Cc1cccc2c1CN(C1CCC(=O)NC1=O)C2=O)C(=O)Nc1cccc(F)c1` (stereo unspecified), with 218 to 220 °C. Compound `Cc1ccccc1OCC(O)CNC(C)COc1cccnc1C(N)=O` (stereo unspecified) gave a melting point of 145 to 161 °C.

Take `CC(C)(C)OC(=O)[C@@H]1CS[C@H](c2ccccc2)N1C(=O)CNC(=O)Nc1cccc(CC(=O)O)c1`: the melting point turned out to be 140 °C.

`CN1CSC(=Cc2ccc(O)c(C(C)(C)C)c2)C1=O`: the melting point was > 230 °C.

Compound `Cc1cccc(C)c1N(CC(C)O)C(=O)c1ccccc1` (stereo unspecified) had a melting point of 121 to 122 °C. `COc1ccc2ccc(N3C(=O)c4ccccc4C3OC(=O)COCC(C)C)nc2n1` (stereo unspecified): the melting point was determined as 114 °C. Then `CN1Cc2c(cc(CN3CCOCC3)n2C)C(c2ccccc2)C1` (stereo unspecified), with 96 to 97 °C; and `O=C(C#Cc1ccc(CN2CCC(N3CCCC3)CC2)cc1)Nc1ccc(-c2ccc(Cl)cc2)cc1`, with 191 to 192 °C. Turning to `O=C1CCC(c2ccc(OCC3CO3)c(Cl)c2)=NN1` (stereo unspecified), the melting point lay within 148 to 149 °C.

Regarding `N#Cc1cnc2ccsc2c1Cl`, the melting point lay within 105 to 107 °C. Then `COc1ccccc1S(=O)(=O)c1ccc2c(c1)[C@@H](N1CCCC1=O)[C@H](O)C(C)(C)O2` (relative stereo), with 196 to 198 °C; and `CC(c1oc2ccccc2c(=O)c1-c1cccc(F)c1)n1nc(-c2ccc(Cl)s2)c2c(N)ncnc21` (stereo unspecified), with 226 to 229 °C.

The compound `CC(C)OP(=O)(OC(C)C)C(Nc1ccccn1)P(=O)(OC(C)C)OC(C)C` had a melting point of 98 to 100 °C. Then `O=[N+]([O-])c1ccc(CCC2CCN(c3cc(Cl)nnc3Cl)CC2)cc1`, with 162 to 164 °C.
